Experimental data from patent US20240390284A1, “IONIZABLE LIPIDS” (BRISTOL-MYERS SQUIBB COMPANY, priority 2023, published 2024).

Columns and labels:
[1] = LNP size (average radius), Wyatt Plate Reader III; type: physicochemical; details: LNP of ionizable lipid:DSPC:cholesterol:DMG-PEG 45:10:44:1 with Cas9 mRNA and sgRNA, 0.087 mg/ml each
Procedure: (§1) Lipid nanoparticles (LNPs) were generated by rapid mixing. A mixture containing ionizable lipid, DSPC, cholesterol, and DMG-PEG at a molar ratio of 45:10:44:1, respectively, in ethanol was mixed with an aqueous sample containing Cas9 mRNA and synthetic sgRNA in 100 mM sodium acetate. Molar fractions were maintained for each formulation while varying the ionizable lipid. After formulation, particles immediately neutralized by dilution into Phosphate Buffered Saline (PBS). LNP size was determined using a Wyatt Plate Reader III with default settings.

HEK293 FT cells = test: Cas9 mRNA/sgRNA LNP gene editing, amplicon sequencing indel percentage (CRISPR-DAV); type: cell-based; details: LNP formulation dosed at 20 uL into 5,000 HEK293 FT cells, four day incubation
Procedure: as §1
(§2) Particles were functionally tested using amplicon sequencing. For testing, each formulation was dosed at 20 uL into 5,000 HEK293 FT or Jurkat cells. After a four day incubation cells were lysed and the locus of interested was amplified with PCR primers. These PCR products are then prepared for sequencing and sequenced on a MiSeq. The sequencing data is then processed and analyzed using CRISPR-DAV, which outputs indel percentages. (Table 1) For general reference, see Xuning Wang, Charles Tilford, Isaac Neuhaus, Gabe Mintier, Qi Guo, John N Feder, Stefan Kirov, CRISPR-DAV: CRISPR NGS data analysis and visualization pipeline, Bioinformatics, Volume 33, Issue 23, December 012017, Pages 3811-3812.

Jurkat cells = test: as above; type: cell-based; details: LNP formulation dosed at 20 uL into 5,000 Jurkat cells, four day incubation
Procedure: as §1, §2

| SMILES | average Radius (nm) rep1 [1] | average Radius (nm) rep2 [1] | Indel % rep1 HEK293 FT (HEK293 FT cells) | Indel % rep2 Hek (HEK293 FT cells) | Indel % rep1 Jurkat (Jurkat cells) | Indel % rep2 Jurkat (Jurkat cells) |
| --- | --- | --- | --- | --- | --- | --- |
| CCCCCC=CCC=CCCCCCCCC1OC(CCN(C)C)OC1CCCCCCCCCCCCCCCCC (stereo in doubt) [Lipid 10, (2-{4-[(8Z,11Z)-heptadeca-8,11-dien-1-yl]-5-heptadecyl-1,3-dioxolan-2-yl}ethyl)dimethylamine] | 177.3 nm | 129.475 nm | 51.22% | 63.9% | 1.75% | 1.04% |
| CCCCCCCC/C=C/CCCCCCCC1OC(CCN(C)C)OC1CCCCCCC/C=C/CCCCCCCC (stereo not drawn) [Lipid 2, (2-{4,5-Bis [(8E)-heptadec-8-en-1-yl]-1,3-dioxolan-2-yl}ethyl)dimethylamine] | 142.825 nm | 136.875 nm | 16.5% | 41.5% | 0.15% | 0.09% |
| CCCCCCCC/C=C\CCCCCCCC1OC(CCN(C)C)OC1CCCCCCC/C=C\CCCCCCCC (stereo not drawn) [Lipid 3, (2-{4,5-Bis [(8Z)-heptadec-8-en-1-yl]-1,3-dioxolan-2-yl}ethyl)dimethylamine] | 92.55 nm | 91.525 nm | 92.23% | 90.92% | 77.31% | 66.37% |
| CCCCC/C=C\C/C=C\CCCCCCCC1OC(CCN(C)C)OC1CCCCCCCCCCCCCCCCC (stereo not drawn) [Lipid 4, (2-{4-[(8Z,11Z)-heptadeca-8,11-dien-1-yl]-5-heptadecyl-1,3-dioxolan-2-yl}ethyl)dimethylamine] | 153.05 nm | 150.55 nm | 53.08% | 62.46% | 34.09% | 19.69% |
| CCCCC/C=C\C/C=C\CCCC1OC(CCN(C)C)OC1CCC/C=C\C/C=C\CCCCC (stereo not drawn) [Lipid 5, {2-[4,5-Bis-((4Z,7Z)-trideca-4,7-dienyl)-[1,3]dioxolan-2-yl]-ethyl}-dimethyl-amine] | 94.25 nm | 90.275 nm | 0.09% | 0.12% | 0.11% | 0.1% |
| CCCCC/C=C\C/C=C\CCCCCC1OC(CCN(C)C)OC1CCCCC/C=C\C/C=C\CCCCC (stereo not drawn) [Lipid 6, (2-{4,5-Bis [(6Z,9Z)-pentadeca-6,9-dien-1-yl]-1,3-dioxolan-2-yl}ethyl)dimethylamine] | 98.825 nm | 91.175 nm | 30.63% | 8.87% | 13.16% | 18.09% |
| CCCCCCCC/C=C/CCCCCCCC1OC(CCN(C)C)OC1CCCCCCCCCCCCCCCCC (stereo not drawn) [Lipid 7, (2-{4-[(8E)-heptadec-8-en-1-yl]-5-heptadecyl-1,3-dioxolan-2-yl}ethyl)dimethylamine] | 116 nm | 124.85 nm | 2.58% | 2.29% | 0.06% | 0.02% |
| CCCCCCCC/C=C\CCCCCCCC1OC(CCN(C)C)OC1CCCCCCCCCCCCCCCCC (stereo not drawn) [Lipid 8, (2-{4-[(8Z)-Heptadec-8-en-1-yl]-5-heptadecyl-1,3-dioxolan-2-yl}ethyl)dimethylamine] | 135.075 nm | 146.35 nm | 67.32% | 74.04% | 2.26% | 0.37% |
| CCCCC/C=C/C/C=C/CCCCCCCC1OC(CCN(C)C)OC1CCCCCCC/C=C/C/C=C/CCCCC (stereo not drawn) [Lipid 9, (2-{4,5-Bis [(8E,11E)-heptadeca-8,11-dien-1-yl]-1,3-dioxolan-2-yl}ethyl)dimethylamine] | 105 nm | 101.525 nm | 84.41% | 66.39% | 15.29% | 10% |
| CCCCC/C=C\C/C=C\CCCCCCCC1OC(CCCN(C)C)OC1CCCCCCC/C=C\C/C=C\CCCCC (stereo not drawn) [Lipid 11] | 122.675 nm | 109.475 nm | 93.59% | 95.87% | 70.3% | 65.07% |
